Patent US12429423B2, “L-2-hydroxyglutarate biosensor based on specific transcriptional regulator and application thereof” (SHANDONG UNIVERSITY, priority 2020, dated 2025)

Tests used:
[1] = tested on: LhgR binding to the lhgO promoter (F1); test: Electrophoretic mobility shift assays (EMSAs) to analyze the effectors of LhgR; set-up: species or system Pseudomonas putida W619; settings: 50 mM compound, 60 nM purified LhgR, 10 nM F1 fragment, 30° C.
Source text: The above transcriptional regulator that specifically responds to L-2-hydroxyglutarate (L-2-HG) was obtained in the following way: • (1) analysis of the distribution of lhgO, the gene encoding a key enzyme for L-2-HG catabolism, in the genomes of different strains. A gene encoding a GntR family transcriptional regulator, lhgR, was found directly upstream of lhgO in the genome of Pseudomonas putida W619. lhgR gene was synthesized and cloned into pETDuet-1 vector, and the recombinant plasmid pETDuet-lhgR was introduced into an expression strain Escherichia coli BL21 (DE3), and then LhgR protein was obtained by induction of expression, isolation, and purification; • (2) electrophoretic mobility shift assays were performed to verify and determine the function of the above transcriptional regulator LhgR in Pseudomonas putida W619. Purified LhgR was incubated with different compounds (L-lysine, 5-aminovalerate, glutarate, D-2-HG, 2-ketoglutarate, and succinate), respectively, then the promoter fragment of lhgO was added. The effect on the binding ability of LhgR to the lhgO promoter fragment in the presence of different compounds was analyzed by electrophoretic separation, staining, and imaging.
Using the recombinant plasmid pETDuet-F2-lhgR-F1-lhgO as a template, the promoter region of lhgO (F1) was amplified by PCR using the synthetic primers. The F1 fragment and purified LhgR protein were diluted to 100 nM and 2000 nM using EMSA binding buffer, respectively. 18 μL of EMSA binding buffer containing 60 nM purified LhgR protein and 50 mM of different compounds was incubated for 15 min at 30° C., then 2 μL of F1 fragment at a final concentration of 10 nM was added and incubated for another 30 min at 30° C. 10 μL of the reaction mixture was electrophoresed on a 6% native polyacrylamide gels at 4° C. and 170 volts for approximately 45 minutes, followed by staining with SYBR green I and photographing.
The EMSA binding buffer formulation described in step (2) above was: 10 mM Tris-HCl, 50 mM KCl, 0.5 mM EDTA, 10% glycerol, and 1 mM dithiothreitol, adjusted to pH 7.4. The electrophoresis buffer formulation was: 89 mM Tris, 89 mM boric acid, 2 mM EDTA, adjusted to pH 8.3.

HEK293FT cells = test: Detection of intracellular L-2-HG concentration in human cells; type: cell-based; settings: HEK293FT cells expressing the biosensor, permeabilized with 10 μM digitonin, L-2-HG added
Experimental: The above application was performed by optimizing and synthesizing the nucleotide sequences of LHGFR0N3C and LHGFR0N7C with mammalian codons, adding the kozark sequence, 5′-GCCACC-3′, before the start codon, and ligating it to the pcDNA3.1^(+) plasmid, then the obtained recombinant plasmids pcDNA3.1-LHGFR0N3C and pcDNA3.1-LHGFR0N7C were transfected into HEK293FT cells, respectively. Cells were trypsinized 48 h following transfection, and resuspended in 1× Hank's balanced salt solution supplemented with 20 mM HEPES. Digitonin at a concentration of 10 μM was used to induce cell permeabilization and deplete intracellular L-2-HG for in vivo response curves construction.
The nucleotide sequences of LHGFR0N3C and LHGFR0N7C were optimized for mammalian codons and synthesized by General Biosystem Co., Ltd (Anhui). […] In a black flat-bottomed 96-well plate, 90 μL of the treated cell suspension was mixed with 10 μL of gradient concentration of L-2-HG and the fluorescence intensity was read in a SpectraMax i3 fluorescence plate reader (Molecular Devices, USA). […] The fluorescence intensity of HEK293FT cells not expressing the L-2-HG biosensor was subtracted at each emission wavelength and the dose-response curve in human cells was plotted as the ratio of the corrected fluorescence intensity at 528 nm to the fluorescence intensity at 485 nm.

E. coli BL21(DE3) = test: Real-time detection of intracellular L-2-HG concentration in bacteria; type: cell-based, Escherichia coli; settings: carbon starvation-treated E. coli BL21(DE3) expressing the biosensor, L-2-HG added, 37° C., 5 min interval
Experimental: The above application was performed by introducing the L-2-HG biosensor-encoding plasmid pETDuet-LHGFR0N3C into an expression strain E. coli BL21 (DE3), shaking the culture and then adding IPTG overnight to induce LHGFR0N3C expression, carbon starvation treatment in inorganic salt medium without carbon source for 8 h to remove intracellular L-2-HG, mixing 90 μL of carbon starvation-treated bacterial solution with 10 μL of gradient concentration of L-2-HG solution, the fluorescence emission intensity of mTFP and Venus and its ratio were measured continuously at 5-minute intervals by a fluorescence microplate reader, and the fluorescence emission ratio increased in response to the addition of L-2-HG, and there was a positive correlation between the change level of fluorescence emission ratio and the concentration of L-2-HG, which can be used as an indicator to achieve real-time detection of dynamic changes in intracellular L-2-HG concentration of bacteria.
The E. coli BL21(DE3)-pETDuet-LHGFR0N3C strain constructed in Example 3 was inoculated in 50 mL of LB medium containing ampicillin resistance and incubated at 37° C. with 180 rpm to an OD600 nm of approximately 0.6. Then, 1 mM IPTG was added, and LHGFR0N3C expression was induced at 16° C. with 160 rpm overnight. […] The fluorescence intensity was detected continuously by using an EnSight microplate reader (PerkinElmer, USA). […]

| Compound | effect on the binding of LhgR to the lhgO promoter fragment (EMSA) [1] | detection of intracellular L-2-HG (fluorescence emission ratio) (HEK293FT cells) | detection of intracellular L-2-HG dynamics (fluorescence emission ratio) (E. coli BL21(DE3)) |
| --- | --- | --- | --- |
| O=C(O)CC[C@@H](O)C(=O)O [D-2-HG] | could not interfere with the binding of LhgR to DNA fragments |  |  |
| O=C(O)CCC(=O)C(=O)O [2-ketoglutarate] | could not interfere with the binding of LhgR to DNA fragments |  |  |
| LHGFR0N7C: L-2-HG biosensor: mTFP-LhgR-Venus fusion with C-terminal truncation of seven amino acids of LhgR; SEQ ID NO. 4 |  | able to detect intracellular L-2-HG concentration in human cells |  |
| NCCCCC(=O)O [5-aminovalerate] | could not interfere with the binding of LhgR to DNA fragments |  |  |
| O=C(O)CCC(=O)O [succinate] | could not interfere with the binding of LhgR to DNA fragments |  |  |
| LHGFR0N3C: L-2-HG biosensor: mTFP-LhgR-Venus fusion with C-terminal truncation of three amino acids of LhgR; SEQ ID NO. 3 |  | able to detect intracellular L-2-HG concentration in human cells | able to detect dynamic changes in intracellular L-2-HG concentration of bacteria in real time |
| NCCCC[C@H](N)C(=O)O [L-lysine] | could not interfere with the binding of LhgR to DNA fragments |  |  |
| O=C(O)CC[C@H](O)C(=O)O [L-2-HG, L-2-Hydroxyglutarate] | inhibited the binding of LhgR to the lhgO promoter fragment |  |  |
